Conditions: nicotine concentration increased from 100 microgram/mL to 14,000 microgram/mL

CN1CCCC1c1cccnc1 (stereo not shown) [nicotine]
Change of permeability of nicotine across the buccal mucosa: decrease of about a factor of two

Source: patent publication US20210345656A1, “HIGH NICOTINE ABSORPTION” (Fertin Pharma A/S, priority 2017, published 2021)
